In patent publication US9273038B2, “Solid forms of an ion channel modulator” (Gilead Sciences, Inc., priority 2014, dated 2016):
Where two headings read alike, the source gives them in different places.

Assays:
[1] = Dynamic vapor sorption (DVS) analysis; assay type: physicochemical; conditions: for Relative humidity of deliquescence (DVS): mono sulfate
Description: The solids with unique XRPD patterns were characterized by DSC, TGA, ^1H NMR, KF and DVS. All XRPD patterns were obtained in the experimental setting as follows: 45 kV, 40 mA, Kα1=1.5406 Å, scan range 2 to 40°, step size 0.0167°, counting time: 15.24 s. DSC and TGA analyses were performed using 10° C./min heating rate over the 20 to 350° C. temperature range.

[2] = Dissolution test of Compound I Form VII in DI water; assay type: physicochemical; conditions: about 8 mg in 0.5 mL DI water; stirred overnight at room temperature; solid found: free base Form I
Description: A dissolution test of Compound I Form VII (about 8 mg) and 0.5 mL of DI water was performed. The solids were almost completely dissolved at first, and then more solids precipitated out. The slurry was allowed to be stirred overnight at room temperature before XRPD and ^1H NMR analyses, which confirm Compound I free base (Form I).

[3] = Relative stability of Compound I Forms XIV and XV (seeding, heating at about 130° C., XRPD); assay type: physicochemical; conditions: seeding experiments; Form XV heated at about 130° C. for about 10 minutes gave Form XIV
Description: In another experiment, Compound I FORM XV was heated at about 130° C. for about 10 minutes and cooled to about 21° C. prior to XRPD analysis.

pKa = assay type: physicochemical
[4] = Stable form screen: solubility in single and binary solvents (HPLC, external standard); assay type: physicochemical
Description: In order to determine whether other polymorphs of Compound I exist, a stable form screen was conducted. […] As a result, slurries were typically produced in non-polar solvents. Table 1). Slurries were also generated in solvent combinations with n-heptane (Table 2) and cyclohexane (Table 3). In cases where a slurry was formed, Form I was isolated after agitation for 1 day and 3 weeks.

[5] = Hydrate screen in ethanol/water and isopropanol/water: solubility and relative form stability; assay type: physicochemical; conditions: 5 days, started from Form I
Description: A hydrate screen starting from Form I was also conducted to evaluate whether hydrates of Compound I exist. The hydrate screen was conducted in ethanol/water (Table 6) and isopropanol/water (Table 7) mixtures, and in both cases, a new polymorph of Compound I was discovered (denoted as Form III).
From the initial hydrate screens presented in Table 6 and Table 7 no apparent trends were observed. In this case, all slurries of Form I in EtOH/water or IPA/water mixtures remained unchanged after 2 weeks (Table 8 and Table 9). Since Form III has been observed previously under the same conditions, it was suspected that the lack of form conversion is mainly due to slow kinetics. […] Attempts to determine the relative stability between Forms I and III at lower water activities were unsuccessful since Form I either was too soluble or oiled out at water activities of 0.8 or below.

[6] = system: late sodium current (INaL); conditions: as described in WO 2013/006485; cited from earlier work

With `Cc1ccc(S(=O)(=O)O)cc1.O=C1c2cc(-c3ccc(OC(F)(F)F)cc3)ccc2OCCN1Cc1ncccn1` [Compound I Form VII, 4-(pyrimidin-2-ylmethyl)-7-(4-(trifluoromethoxy)phenyl)-3,4-dihydrobenzo[f][1,4]oxazepin-5(2H)-one p-toluenesulfonic acid] the “Hygroscopicity by DVS (in words)” value [1] was “moderately hygroscopic”, the “Moisture uptake at 90% RH (DVS)” value ([1]; 90% RH) was “about 2.75 wt %” and the “Water adsorbed at 90% RH (DVS)” value ([1]; 90% RH) was “about 0.9 molar equivalents”. The “Moisture uptake at 90% RH (DVS)” value ([1]; 90% RH, listed as Form VII) was 2.75 wt % at, the “Hygroscopicity by DVS (in words)” value ([1]; listed as Form VII) was “Moderately” and the “Stability in water (in words)” value [2] was “unstable in water and dissociates in it”.
For `O=C1c2cc(-c3ccc(OC(F)(F)F)cc3)ccc2OCCN1Cc1ncccn1.O=S(=O)(O)O` [Compound I Form XIV, 4-(pyrimidin-2-ylmethyl)-7-(4-(trifluoromethoxy)phenyl)-3,4-dihydrobenzo[f][1,4]oxazepin-5(2H)-one mono sulfate], the “Relative stability of Forms XIV and XV (in words)” value [3] was “the more stable phase in comparison with Compound I FORM XV”, the “Relative humidity of deliquescence (DVS)” value ([1]; listed as Compound I FORM XIV) was “around 70 % RH” and the “Relative humidity of deliquescence (DVS)” value [1] was “about 70 % RH”.
In the case of `O=C1c2cc(-c3ccc(OC(F)(F)F)cc3)ccc2OCCN1Cc1ncccn1` [Compound I, 4-(pyrimidin-2-ylmethyl)-7-(4-(trifluoromethoxy)phenyl)-3,4-dihydrobenzo[f][1,4]oxazepin-5(2H)-one], the pKa (pKa) is reported as under 2, the “Solubility (mg/g) (3 weeks)” value ([4]; 2-MeTHF/n-heptane (1:5) v/v, slurry, solid Form I) is reported as 6.7 mg/g and the “Solubility (mg/g) (3 weeks)” value ([4]; Cyclohexane, slurry, solid Form I) is reported as 2.4 mg/g. For the same molecule, the “Solubility (mg/g) (1 day)” value ([4]; EtOAc/cyclohexane (1:3) v/v, 1 day, slurry, solid Form I) was 86 mg/g, the “Solubility (mg/g) (3 weeks)” value ([4]; IPA/n-heptane (1:4) v/v, slurry, solid Form I) was 20.0 mg/g and the “Solubility (mg/g) (3 weeks)” value ([4]; IPA, homogenous) was over 300 mg/g. For the same molecule, the “Solubility (mg/g) (3 weeks)” value ([4]; IPE, slurry, solid Form I) was 21.5 mg/g, the “Solubility (mg/g) (3 weeks)” value ([4]; MTBE/n-heptane (1:2) v/v, slurry, solid Form I) was 5.4 mg/g and the “Solubility (mg/g) (3 weeks)” value ([4]; MTBE, homogenous) was over 240 mg/g. The “Solubility (mg/g) (3 weeks)” value ([4]; MeCN, homogenous) was over 350 mg/g, the “Solubility (mg/g) (3 weeks)” value ([4]; Toluene/n-heptane (1:3) v/v, slurry, solid Form I) was 7.1 mg/g and the “Solubility (mg/g) (3 weeks)” value ([4]; Toluene, homogenous) was over 500 mg/g. For the same molecule, the “Solubility (mg/g) (3 weeks)” value ([4]; Water, slurry, solid Form I) was 0 mg/g, the “Solubility (mg/g) (3 weeks)” value ([4]; iPrOAc/n-heptane (1:3) v/v, slurry, solid Form I) was 18.9 mg/g and the “Solubility in organic solvents (in words)” value ([4]; many organic solvents) was “highly soluble”. For the same molecule, the “Solubility (mg/g) (3 weeks)” value ([4]; n-Heptane, slurry, solid Form I) was 0.9 mg/g, the “Solubility (mg/g) (3 weeks)” value ([4]; t-amyl alcohol/n-heptane (1:3) v/v, slurry, solid Form I) was 17.5 mg/g and the “Solubility” value ([5]; 10% EtOH in water (volume), water activity >0.9, solid found Form I) was 0 mg/g. The “Solubility” value ([5]; 10% IPA in water (volume), water activity >0.9, solid found Form III) was 0 mg/g, the “Solubility” value ([5]; 20% EtOH in water (volume), water activity 0.8-0.9, solid found Form III) was 0.05 mg/g and the “Solubility” value ([5]; 20% IPA in water (volume), water activity >0.9, solid found Form I) was 0 mg/g. For the same molecule, the “Solubility” value ([5]; 25% IPA in water (volume), water activity >0.9, solid found Form III) was 0.5 mg/g, the “Solubility” value ([5]; 30% EtOH in water (volume), water activity 0.8-0.9, solid found Form I) was 0.6 mg/g and the “Late sodium current inhibition (in words)” value [6] was “selective late sodium current inhibitor”.
